In patent US6737383B1, “Herbicidal oxadiazolidines” (priority 1999, dated 2004):

Experiments:
[1] = test system: bedstraw; assay: Test B pre/postemergence bedstraw; format: in vivo, Galium aparine; conditions: Preemergence
In short: (§1)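 Response is a visual 0-to-10 score relative to untreated plants, where 0 means no effect and 10 means complete control, taken twelve to sixteen days after application. Treatments went onto soil at planting and onto foliage of 1- to 4-leaf plants, using a surfactant-containing non-phytotoxic solvent.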

[2] = test system: surinam grass; assay: Test B pre/postemergence surinam grass; format: in vivo, Brachiaria decumbens
In short: as §1

[3] = test system: giant foxtail; assay: Test B pre/postemergence giant foxtail; format: in vivo, Setaria faberii
In short: as §1

[4] = test system: blackgrass; assay: Test B pre/postemergence blackgrass; format: in vivo, Alopecurus myosuroides
In short: as §1

[5] = test system: soybean; assay: Test B pre/postemergence soybean; format: in vivo, Glycine max
In short: as §1

[6] = test system: velvetleaf; assay: Test B pre/postemergence velvetleaf; format: in vivo, Abutilon theophrasti
In short: as §1

[7] = test system: rape; assay: Test B pre/postemergence rape; format: in vivo, Brassica napus
In short: as §1

[8] = test system: wild oat; assay: Test B pre/postemergence wild oat; format: in vivo, Avena fatua
In short: as §1

[9] = test system: cocklebur; assay: Test B pre/postemergence cocklebur; format: in vivo, Xanthium strumarium
In short: as §1

[10] = test system: corn; assay: Test B pre/postemergence corn; format: in vivo, Zea mays
In short: as §1

[11] = test system: purple nutsedge; assay: Test B pre/postemergence purple nutsedge; format: in vivo, Cyperus rotundus
In short: as §1

[12] = test system: crabgrass; assay: Test B pre/postemergence crabgrass; format: in vivo, Digitaria sanguinalis
In short: as §1

[13] = test system: pigweed; assay: Test B pre/postemergence pigweed; format: in vivo, Amaranthus retroflexus
In short: as §1

[14] = test system: sugar beet; assay: Test B pre/postemergence sugar beet; format: in vivo, Beta vulgaris
In short: as §1

[15] = test system: wheat; assay: Test B pre/postemergence wheat; format: in vivo, Triticum aestivum
In short: as §1

[16] = test system: morningglory; assay: Test B pre/postemergence morningglory; format: in vivo, Ipomoea hederacea
In short: as §1

[17] = Postemergence, Rate 62 g/ha, scale of 0 to 10, 0 is no effect, 10 is complete control
[18] = Postemergence, Rate 125 g/ha, scale 0 to 10, 0 is no effect, 10 is complete control
[19] = Postemergence, Rate 500 g/ha, scale of 0 to 10 where 0 is no effect and 10 is complete control
[20] = Preemergence, Rate 62 g/ha, scale 0 to 10 (0 no effect, 10 complete control)
[21] = Preemergence, Rate 125 g/ha, scale 0 to 10, 0 is no effect, 10 is complete control
[22] = Preemergence, Rate 500 g/ha, scale of 0 to 10 where 0 is no effect and 10 is complete control
[23] = Rate 250 g/ha, Postemergence, scale of 0 to 10 where 0 is no effect and 10 is complete control

With CC(C)N(C(=O)n1oc(=O)n(CCC(F)=C(F)F)c1=O)c1ccccc1 [Compound 566] the “Bedstraw plant response rating” value ([1]; Rate 62 g/ha, scale 0 to 10 (0 no effect, 10 complete control)) was 0, the “Bedstraw plant response rating” value ([1]; Rate 125 g/ha, scale 0 to 10, 0 is no effect, 10 is complete control) was 0 and the “Bedstraw plant response rating (0 to 10 scale)” value ([1]; Rate 250 g/ha) was 0. The “Bedstraw plant response rating” value ([1]; Rate 500 g/ha, scale of 0 to 10 where 0 is no effect and 10 is complete control) was 0, the “B. signalgrass plant response rating” value [2, 17] was 2 and the “B. signalgrass plant response rating” value [2, 18] was 8. For the same compound, the “Plant response rating, B. signalgrass” value [2, 19] was 9, the “B. signalgrass plant response rating” value [2, 20] was 9 and the “B. signalgrass plant response rating” value [2, 21] was 9. The “B. signalgrass plant response rating (0 to 10 scale, 0 is no effect, 10 is complete control)” value ([2]; Preemergence, Rate 250 g/ha) was 10, the “B. signalgrass plant response rating” value [2, 22] was 9 and the “Plant response rating, B. signalgrass” value [2, 23] was 8. The “Giant foxtail plant response rating” value [3, 17] was 0, the “Giant foxtail plant response rating” value [3, 18] was 8 and the “Plant response rating, Giant foxtail” value [3, 19] was 9. The “Giant foxtail plant response rating” value [3, 20] was 9, the “Giant foxtail plant response rating” value [3, 21] was 10 and the “Giant foxtail plant response rating (0 to 10 scale)” value ([3]; Preemergence, Rate 250 g/ha) was 10. For the same compound, the “Giant foxtail plant response rating” value [3, 22] was 10, the “Plant response rating, Giant foxtail” value [3, 23] was 8 and the “Blackgrass plant response rating” value [4, 17] was 0. The “Blackgrass plant response rating” value [4, 18] was 2, the “Plant response rating, Blackgrass” value [4, 19] was 6 and the “Blackgrass plant response rating” value [4, 20] was 3. For the same compound, the “Blackgrass plant response rating” value [4, 21] was 9, the “Blackgrass plant response rating (0 to 10 scale)” value ([4]; Preemergence, Rate 250 g/ha) was 10 and the “Blackgrass plant response rating” value [4, 22] was 10. The “Plant response rating, Blackgrass” value [4, 23] was 3, the “Soybean plant response rating” value [5, 17] was 4 and the “Plant response rating, Soybean” value [5, 19] was 6. The “Soybean plant response rating” value [5, 20] was 0, the “Soybean plant response rating” value [5, 21] was 0 and the “Soybean plant response rating (0 to 10 scale)” value ([5]; Preemergence, Rate 250 g/ha) was 0. The “Soybean plant response rating” value [5, 22] was 0, the “Plant response rating, Soybean” value [5, 23] was 6 and the “Velvetleaf plant response rating” value [6, 17] was 3. The “Plant response rating, Velvetleaf” value [6, 19] was 5, the “Velvetleaf plant response rating” value [6, 20] was 0 and the “Velvetleaf plant response rating” value [6, 21] was 0. For the same compound, the “Velvetleaf plant response rating (0 to 10 scale)” value ([6]; Preemergence, Rate 250 g/ha) was 0, the “Velvetleaf plant response rating” value [6, 22] was 2 and the “Plant response rating, Velvetleaf” value [6, 23] was 5. For the same compound, the “Rape plant response rating” value [7, 17] was 0, the “Rape plant response rating” value [7, 18] was 0 and the “Plant response rating, Rape” value [7, 19] was 9. The “Rape plant response rating” value [7, 20] was 0, the “Rape plant response rating” value [7, 21] was 0 and the “Rape plant response rating (0 to 10 scale)” value ([7]; Preemergence, Rate 250 g/ha) was 7. For the same compound, the “Rape plant response rating” value [7, 22] was 10, the “Plant response rating, Rape” value [7, 23] was 9 and the “Wild oats plant response rating” value [8, 17] was 0. The “Plant response rating, Wild oats” value [8, 19] was 4, the “Wild oats plant response rating” value [8, 20] was 3 and the “Wild oats plant response rating” value [8, 21] was 9. For the same compound, the “Wild oats plant response rating (0 to 10 scale)” value ([8]; Preemergence, Rate 250 g/ha) was 8, the “Wild oats plant response rating” value [8, 22] was 10 and the “Plant response rating, Wild oats” value [8, 23] was 0. For the same compound, the “Cocklebur plant response rating” value [9, 17] was 2, the “Cocklebur plant response rating” value [9, 18] was 2 and the “Plant response rating, Cocklebur” value [9, 19] was 3. For the same compound, the “Cocklebur plant response rating” value [9, 20] was 0, the “Cocklebur plant response rating” value [9, 21] was 0 and the “Cocklebur plant response rating (0 to 10 scale)” value ([9]; Preemergence, Rate 250 g/ha) was 0. For the same compound, the “Cocklebur plant response rating” value [9, 22] was 0, the “Plant response rating, Cocklebur” value [9, 23] was 2 and the “Corn plant response rating” value [10, 17] was 0. For the same compound, the “Corn plant response rating” value [10, 18] was 0, the “Plant response rating, Corn” value [10, 19] was 2 and the “Corn plant response rating” value [10, 20] was 0. For the same compound, the “Corn plant response rating” value [10, 21] was 2, the “Corn plant response rating (0 to 10 scale)” value ([10]; Preemergence, Rate 250 g/ha) was 2 and the “Corn plant response rating” value [10, 22] was 9. The “Plant response rating, Corn” value [10, 23] was 2, the “Nutsedge plant response rating” value [11, 17] was 0 and the “Nutsedge plant response rating” value [11, 18] was 0. The “Plant response rating, Nutsedge” value [11, 19] was 0, the “Nutsedge plant response rating” value [11, 20] was 0 and the “Nutsedge plant response rating” value [11, 21] was 0. The “Nutsedge plant response rating (0 to 10 scale)” value ([11]; Preemergence, Rate 250 g/ha) was 0, the “Nutsedge plant response rating” value [11, 22] was 0 and the “Crabgrass plant response rating” value [12, 17] was 2. For the same compound, the “Crabgrass plant response rating” value [12, 18] was 8, the “Plant response rating, Crabgrass” value [12, 19] was 9 and the “Crabgrass plant response rating” value [12, 20] was 9. The “Crabgrass plant response rating” value [12, 21] was 9, the “Crabgrass plant response rating (0 to 10 scale)” value ([12]; Preemergence, Rate 250 g/ha) was 9 and the “Crabgrass plant response rating” value [12, 22] was 10. The “Plant response rating, Crabgrass” value [12, 23] was 10, the “Redroot pigweed plant response rating” value [13, 17] was 3 and the “Plant response rating, Redroot pigweed” value [13, 19] was 5. For the same compound, the “Redroot pigweed plant response rating” value [13, 20] was 0, the “Redroot pigweed plant response rating” value [13, 21] was 9 and the “Redroot pigweed plant response rating (0 to 10 scale)” value ([13]; Preemergence, Rate 250 g/ha) was 9. For the same compound, the “Redroot pigweed plant response rating” value [13, 22] was 10, the “Sugarbeets plant response rating” value [14, 17] was 0 and the “Plant response rating, Sugarbeets” value [14, 19] was 5. For the same compound, the “Sugarbeets plant response rating” value [14, 20] was 0, the “Sugarbeets plant response rating” value [14, 21] was 4 and the “Sugarbeets plant response rating (0 to 10 scale)” value ([14]; Preemergence, Rate 250 g/ha) was 6. For the same compound, the “Sugarbeets plant response rating” value [14, 22] was 6, the “Wheat plant response rating” value [15, 17] was 0 and the “Plant response rating, Wheat” value [15, 19] was 4. For the same compound, the “Wheat plant response rating” value [15, 20] was 0, the “Wheat plant response rating” value [15, 21] was 6 and the “Wheat plant response rating (0 to 10 scale)” value ([15]; Preemergence, Rate 250 g/ha) was 6. For the same compound, the “Wheat plant response rating” value [15, 22] was 7, the “Plant response rating, Wheat” value [15, 23] was 0 and the “Morningglory plant response rating” value [16, 17] was 5. For the same compound, the “Morningglory plant response rating” value [16, 18] was 5, the “Plant response rating, Morningglory” value [16, 19] was 10 and the “Morningglory plant response rating” value [16, 20] was 0. For the same compound, the “Morningglory plant response rating” value [16, 21] was 0, the “Morningglory plant response rating (0 to 10 scale)” value ([16]; Preemergence, Rate 250 g/ha) was 0 and the “Morningglory plant response rating” value [16, 22] was 0. For the same compound, the “Plant response rating, Morningglory” value [16, 23] was 6.
